Assay results: patent US10610520B2, “Heterocyclic compound” (Takeda Pharmaceutical Company Limited, priority 2016, dated 2020)

Molecular target: T1, His-hMAGL (recombinant polyhistidine tagged human MAGL protein) (Homo sapiens, UniProt Q99685)
T1 construct: made in house; host or cells: E. coli BL21(DE3)
T1 sequence (Q99685 1-303): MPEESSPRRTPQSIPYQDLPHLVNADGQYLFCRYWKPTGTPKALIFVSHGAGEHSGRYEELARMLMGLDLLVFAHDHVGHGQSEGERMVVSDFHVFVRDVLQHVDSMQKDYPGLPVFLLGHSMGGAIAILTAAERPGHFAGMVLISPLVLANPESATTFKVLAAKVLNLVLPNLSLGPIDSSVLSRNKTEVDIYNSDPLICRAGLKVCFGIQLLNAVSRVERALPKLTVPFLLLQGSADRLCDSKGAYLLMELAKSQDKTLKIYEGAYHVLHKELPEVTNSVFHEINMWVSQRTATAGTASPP
Test: Measurement of MAGL inhibitory activity (arachidonic acid production from 2-arachidonylglycerol, RapidFire-mass spectrometry)
Assay type: biochemical
Details: MAGL inhibitory rate, test compound 10 μM, 60 min preincubation, 2-arachidonylglycerol substrate
Summary of the method: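 Arachidonic acid formed was quantified by online solid-phase extraction and triple-quadrupole MS in negative SRM mode against a d8 internal standard. Reaction: recombinant His-hMAGL (7.5 ng/mL, pH 7.5 Tris buffer with Triton X-100 and BSA) plus 2-AG (5 μL of 150 μM stock) for 10 min at room temperature, quenched with 2% formic acid. Percent inhibition corrected for enzyme-free background.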

SMILES | inhibition at 10 µM [%] | % inhibition (10 μM) (10 µM) [%]
COc1cc(F)c2c(Cl)c(C(=O)N3CC4(COC(=O)N4)C3)sc2c1Cl [Example 294, 2-((3,7-dichloro-4-fluoro-6-methoxy-1-benzothiophen-2-yl)carbonyl)-7-oxa-2,5-diazaspiro[3.4]octan-6-one] | 100 | 
O=C1CCC2(CN(C(=O)c3cc4cccc(Br)c4s3)C2)N1 [Example 146, 2-((7-bromo-1-benzothiophen-2-yl)carbonyl)-2,5-diazaspiro[3.4]octan-6-one] | 90 | 
Cn1c(-c2ccc(C(=O)N3CC4(CCC(=O)N4)C3)cc2)cc2ccccc21 [Example 56, 2-(4-(1-methyl-1H-indol-2-yl)benzoyl)-2,5-diazaspiro[3.4]octan-6-one] | 94 | 
O=C1CCC2(CN(C(=O)c3ccc4c(ccn4-c4ccc(C(F)(F)F)cn4)c3)C2)N1 [Example 14, 2-((1-(5-(trifluoromethyl)pyridin-2-yl)-1H-indol-5-yl)carbonyl)-2,5-diazaspiro[3.4]octan-6-one] | 96 | 
O=C1NC2(CO1)CN(C(=O)[C@H]1C[C@@H](OCc3ccc(Cl)cc3Cl)C1)C2 [Example 349, 2-((cis-3-((2,4-dichlorobenzyl)oxy)cyclobutyl)carbonyl)-7-oxa-2,5-diazaspiro[3.4]octan-6-one] | 100 | 
O=C1CCC2(CN(C(=O)c3ccc(-c4cccc(C(F)(F)F)c4Cl)cc3)C2)N1 [Example 51, 2-((2′-chloro-3′-(trifluoromethyl)biphenyl-4-yl)carbonyl)-2,5-diazaspiro[3.4]octan-6-one] | 99 | 
O=C1NC2(CO1)CN(C(=O)[C@H]1C[C@@H](OCc3ccc(C(F)(F)F)c(Cl)c3)C1)C2 [Example 359, 2-((cis-3-((3-chloro-4-(trifluoromethyl)benzyl)oxy)cyclobutyl)carbonyl)-7-oxa-2,5-diazaspiro[3.4]octan-6-one] | 99 | 
CC(C)(C)c1cccc(-c2ccc(C(=O)N3CC4(CCC(=O)N4)C3)cc2)c1 [Example 55, 2-((3′-tert-butylbiphenyl-4-yl)carbonyl)-2,5-diazaspiro[3.4]octan-6-one] | 101 | 
O=C1NC2(CCN(C(=O)N3CCC(COc4ccc(F)cc4Cl)CC3)C2)CO1 (stereo not shown) [Example 322, 7-((4-((2-chloro-4-fluorophenoxy)methyl)piperidin-1-yl)carbonyl)-3-oxa-1,7-diazaspiro[4.4]nonan-2-one] | 100 | 
O=C1CCC2(CN(C(=O)c3ccc(OCc4ccccc4)cc3)C2)N1 [Example 6, 2-(4-(benzyloxy)benzoyl)-2,5-diazaspiro[3.4]octan-6-one] | 87 | 
COc1c(F)cc(-c2ccc(C(=O)N3CC4(CCC(=O)N4)C3)cc2)cc1F [Example 71, 2-((3′,5′-difluoro-4′-methoxybiphenyl-4-yl)carbonyl)-2,5-diazaspiro[3.4]octan-6-one] | 94 | 
O=C1CCC2(CN(C(=O)c3ccc(-c4cc(F)c(F)cc4F)cc3)C2)N1 [Example 70, 2-((2′,4′,5′-trifluorobiphenyl-4-yl)carbonyl)-2,5-diazaspiro[3.4]octan-6-one] | 97 | 
Cc1c(C(F)(F)F)ccc2c(Cl)c(C(=O)N3CCC4(COC(=O)N4)C3)sc12 (stereo not shown) [Example 337, 7-((3-chloro-7-methyl-6-(trifluoromethyl)-1-benzothiophen-2-yl)carbonyl)-3-oxa-1,7-diazaspiro[4.4]nonan-2-one] | 100 | 
COc1cc(-c2ccccc2)ccc1C(=O)N1CC2(CCC(=O)N2)C1 [Example 43, 2-((3-methoxybiphenyl-4-yl)carbonyl)-2,5-diazaspiro[3,4]octan-6-one] | 87 | 
Cc1ccc(-c2ccc(C(=O)N3CC4(CCC(=O)N4)C3)cc2)c(Cl)c1 [Example 83, 2-((2′-chloro-4′-methylbiphenyl-4-yl)carbonyl)-2,5-diazaspiro[3.4]octan-6-one] | 96 | 
O=C1NC2(CCN(C(=O)c3sc4c(F)c(OC(F)(F)F)cc(F)c4c3Cl)C2)CO1 (stereo not shown) [Example 336, 7-((3-chloro-4,7-difluoro-6-(trifluoromethoxy)-1-benzothiophen-2-yl)carbonyl)-3-oxa-1,7-diazaspiro[4.4]nonan-2-one] | 100 | 
O=C1NC2(CO1)CN(C(=O)c1sc3cc(Cl)ccc3c1Cl)C2 [Example 364, 2-((3,6-dichloro-1-benzothiophen-2-yl)carbonyl)-7-oxa-2,5-diazaspiro[3.4]octan-6-one] | 100 | 
O=C1CCC2(CN(C(=O)c3ccc(-c4ccc(F)c(F)c4F)cc3)C2)N1 [Example 69, 2-((2′,3′,4′-trifluorobiphenyl-4-yl)carbonyl)-2,5-diazaspiro[3.4]octan-6-one] | 97 | 
O=C1NC2(CO1)CN(C(=O)[C@H]1C[C@@H](OCc3ccc(C(F)(F)F)cc3F)C1)C2 (stereo in doubt) [Example 355, 2-((cis-3-((2-fluoro-4-(trifluoromethyl)benzyl)oxy)cyclobutyl)carbonyl)-7-oxa-2,5-diazaspiro[3.4]octan-6-one] |  | 99

Results, then the molecule that gave them:

inhibition at 10 µM [%] | % inhibition (10 μM) (10 µM) [%] | SMILES
100 |  | O=C1NC2(CCN(C(=O)c3sc4c(F)c(OC(F)(F)F)ccc4c3Cl)C2)CO1 (stereo not shown) [Example 338, 7-((3-chloro-7-fluoro-6-(trifluoromethoxy)-1-benzothiophen-2-yl)carbonyl)-3-oxa-1,7-diazaspiro[4.4]nonan-2-one]
98 |  | O=C1CCC2(CN(C(=O)c3sc4cc(OC(F)(F)F)ccc4c3C(F)(F)F)C2)N1 [Example 263, 2-((6-(trifluoromethoxy)-3-(trifluoromethyl)-1-benzothiophen-2-yl)carbonyl)-2,5-diazaspiro[3.4]octan-6-one]
100 |  | O=C1NC2(CO1)CN(C(=O)c1sc3cc(OC(F)(F)F)ccc3c1C(F)(F)F)C2 [Example 261, 2-((6-(trifluoromethoxy)-3-(trifluoromethyl)-1-benzothiophen-2-yl)carbonyl)-7-oxa-2,5-diazaspiro[3.4]octan-6-one]
99 |  | O=C1CCC2(CN(C(=O)c3sc4cc(-c5cccc(F)c5)ccc4c3Cl)C2)N1 [Example 37, 2-((3-chloro-6-(3-fluorophenyl)-1-benzothiophen-2-yl)carbonyl)-2,5-diazaspiro[3.4]octan-6-one]
97 |  | O=C1CCC2(CN(C(=O)c3ccc(-c4ccc(C(F)(F)F)c(F)c4)cc3)C2)N1 [Example 45, 2-((3′-fluoro-4′-(trifluoromethyl)biphenyl-4-yl)carbonyl)-2,5-diazaspiro[3.4]octan-6-one]
100 |  | Cc1cccc(-c2ccc3c(Cl)c(C(=O)N4CC5(CCC(=O)N5)C4)sc3c2)c1F [Example 208, 2-((3-chloro-6-(2-fluoro-3-methylphenyl)-1-benzothiophen-2-yl)carbonyl)-2,5-diazaspiro[3.4]octan-6-one]
100 |  | O=C1CCC2(CN(C(=O)c3sc4cc(-c5c(F)cccc5F)ccc4c3Cl)C2)N1 [Example 213, 2-((3-chloro-6-(2,6-difluorophenyl)-1-benzothiophen-2-yl)carbonyl)-2,5-diazaspiro[3.4]octan-6-one]
96 |  | Cc1c(C(=O)N2CC3(CCC(=O)N3)C2)sc2cccc(F)c12 [Example 142, 2-((4-fluoro-3-methyl-1-benzothiophen-2-yl)carbonyl)-2,5-diazaspiro[3.4]octan-6-one]
92 |  | Cc1c(C(=O)N2CC3(CCC(=O)N3)C2)sc2ccccc12 [Example 141, 2-((3-methyl-1-benzothiophen-2-yl)carbonyl)-2,5-diazaspiro[3.4]octan-6-one]
90 |  | O=C1CCC2(CN(C(=O)c3sc4cc(-c5ccc(C(F)(F)F)cc5)ccc4c3Cl)C2)N1 [Example 197, 2-((3-chloro-6-(4-(trifluoromethyl)phenyl)-1-benzothiophen-2-yl)carbonyl)-2,5-diazaspiro[3.4]octan-6-one]
100 |  | O=C1CCC2(CN(C(=O)N3CC(COc4ccc(C(F)(F)F)c(F)c4)C3)C2)N1 [Example 22, 2-((3-((3-fluoro-4-(trifluoromethyl)phenoxy)methyl)azetidin-1-yl)carbonyl)-2,5-diazaspiro[3.4]octan-6-one]
101 |  | Cc1cc(-c2ccc3c(Cl)c(C(=O)N4CC5(CCC(=O)N5)C4)sc3c2)ccc1F [Example 210, 2-((3-chloro-6-(4-fluoro-3-methylphenyl)-1-benzothiophen-2-yl)carbonyl)-2,5-diazaspiro[3.4]octan-6-one]
99 |  | O=C1CCC2(CN(C(=O)c3sc4ccc(OC(F)(F)F)cc4c3Cl)C2)N1 [Example 253, 2-((3-chloro-5-(trifluoromethoxy)-1-benzothiophen-2-yl)carbonyl)-2,5-diazaspiro[3.4]octan-6-one]
97 |  | O=C1CCC2(CN(C(=O)c3sc4cc(-c5ccc(Cl)cc5)ccc4c3Cl)C2)N1 [Example 191, 2-((3-chloro-6-(4-chlorophenyl)-1-benzothiophen-2-yl)carbonyl)-2,5-diazaspiro[3.4]octan-6-one]
101 |  | Cc1cccc(-c2ccc3c(Cl)c(C(=O)N4CC5(CCC(=O)N5)C4)sc3c2)c1 [Example 186, 2-((3-chloro-6-(3-methylphenyl)-1-benzothiophen-2-yl)carbonyl)-2,5-diazaspiro[3.4]octan-6-one]
